This note sets out measurements from patent publication US8445505B2 (IRM LLC, priority 2008, dated 2013).

pIC50: −log10 of the molar value.

Test [1] has as its target T1, IGF1R Ba/F3 (Homo sapiens, UniProt P08069). Kind of test: Ba/F3 Cell Viability Inhibition Assay (Tel-TK transformed Ba/F3 lines). Details: most likely, as the lines are called Tel-TK) or BCR (P11274). The settings on record: Tel-TK (IGF1R) transformed Ba/F3 cells, 48 hours incubation, cell viability (Britelite luminescence). The test is classed as cell-based, murine. An excerpt:
Ba/F3 is a murine IL-3-dependent pro-B lymphoma cell line. Parental Ba/F3 cells are used to generate a panel of sublines whose proliferation and survival is rendered IL-3-independent by stable transduction with individual tyrosine kinases activated by fusion with the amino-terminal portion of TEL (amino acid 1-375) or BCR. In order to generate Ba/F3 cell lines transformed by Tel-Tyrosine Kinase (TK) fusions, parental Ba/F3 cells are infected with a retrovirus harboring each TEL-fusion kinase and subjected to puromycin selection and IL-3 withdrawal to obtain IL-3-independent, transformed Ba/F3 cells.
Each transformed Ba/F3 cells are cultured in RPMI-1640 media (Gibco Cat #11875093, Carlsbad, Calif.) supplemented with 10% FBS (Hyclone Cat #SV30014.03, Logan, Utah), 4.5 g/L glucose (Sigma #G5400, St.Louis, Mo.), 1.5 g/L sodium bicarbonate (Biowhittaker #17-613E, Walkersville, Md.) and Pen/Strep (Gibco #10378-016, Carlsbad, Calif.). Cells are splitted twice weekly.
The potency of test compounds against various Tel-TK transformed Ba/F3 lines is determined as follows. Exponentially growing BaF3 Tel-TK cells are diluted in fresh medium to 75,000 cells/mL and seeded into 384-well plates (3750 cells/well) at 50 μL/well using a gill liquid dispenser (BioTek, Winooski, Vt., USA). […] 25 μL Britelite (Perkin Elmer) is added and luminescence is quantified using Analyst GT (Molecular Devices). […]

Test [2] addresses T1, IGF1R Ba/F3. Described as above. It counts as cell-based, murine. Details: the printed alternative. Particulars: Tel-TK (IGF1R) transformed Ba/F3 cells, 48 hours incubation, cell viability (Britelite luminescence). The procedure, abridged:
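Murine pro-B Ba/F3 cells made IL-3-independent by TEL(1-375)- or BCR-fused tyrosine kinases; parental line run with 1 ng/ml IL-3 (final). 3750 cells/well exposed to DMSO-diluted compound for 48 h at 37 °C; viability read by Britelite luminescence. IC50 from logistic fit, concentration reducing viability to 50% of DMSO control.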

T1 sequence (P08069 999-1274 limits assumed): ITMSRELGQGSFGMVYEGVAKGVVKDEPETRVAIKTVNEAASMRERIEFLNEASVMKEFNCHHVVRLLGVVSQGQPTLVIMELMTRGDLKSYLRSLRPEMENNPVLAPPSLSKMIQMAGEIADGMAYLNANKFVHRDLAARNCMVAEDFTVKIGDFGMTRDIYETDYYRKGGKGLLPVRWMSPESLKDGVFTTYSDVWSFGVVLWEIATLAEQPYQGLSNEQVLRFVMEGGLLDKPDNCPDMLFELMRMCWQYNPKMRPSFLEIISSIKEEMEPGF

Compound `Cc1cc(Nc2nc(Nc3cc(C)c(-c4cccnc4)cc3C)ncc2Cl)n[nH]1` [Compound 13] showed a pIC50 at IGF1R Ba/F3 [1] of 7.54.
Consider `Cc1cc(Nc2nc(Nc3cc4c(cc3F)CN(C3CCNCC3)C4=O)ncc2Cl)no1` [Compound 80, 6-(5-chloro-4-(5-methylisoxazol-3-ylamino)pyrimidin-2-ylamino)-5-fluoro-2-(piperidin-4-yl)isoindolin-1-one], for which, at IGF1R Ba/F3 [2], the pIC50 is 5.58.
On IGF1R Ba/F3 [2], `O=C1NCc2cc(F)c(Nc3ncc(Cl)c(Nc4cc(C5CC5)[nH]n4)n3)cc21` [Compound 81, 6-(5-chloro-4-(5-cyclopropyl-1H-pyrazol-3-ylamino)pyrimidin-2-ylamino)-5-fluoroisoindolin-1-one] had a negative-log IC50 (pIC50) of 5.64.
For the compound `Cc1cc(Nc2nc(Nc3cc4c(cc3F)CNC4=O)ncc2Cl)n[nH]1` [Compound 82, 6-(5-chloro-4-(5-methyl-1H-pyrazol-3-ylamino)pyrimidin-2-ylamino)-5-fluoroisoindolin-1-one], the pIC50 at IGF1R Ba/F3 [2] was 5.58.
With `Cc1cc2c(Nc3ncc(Cl)c(Nc4cc(C)[nH]n4)n3)cccc2nn1` [Compound 83, 5-chloro-N4-(5-methyl-1H-pyrazol-3-yl)-N2-(3-methylcinnolin-5-yl)pyrimidine-2,4-diamine], the negative logarithm of the IC50 (pIC50) against IGF1R Ba/F3 [2] is 5.84.
`Cc1cc(Nc2nc(Nc3cc(C)c(C4CCN(CC(N)=O)CC4)cn3)ncc2Cl)n[nH]1` [Compound 84, 2-(4-(6-(5-Chloro-4-(5-methyl-1H-pyrazol-3-ylamino)pyrimidin-2-ylamino)-4-methylpyridin-3-yl)piperidin-1-yl)acetamide] gave a pIC50 at IGF1R Ba/F3 [2] of 6.28.
On to `Cc1cc(Nc2nc(Nc3ccc(C4CCNCC4)c4ccccc34)ncc2Cl)n[nH]1` [Compound 85, 5-chloro-N^4-(5-methyl-1H-pyrazol-3-yl)-N^2-(4-(piperidin-4-yl)naphthalene-1-yl)pyrimidine-2,4-diamine], for which the pIC50 on IGF1R Ba/F3 [2] was 6.31.
For the compound `Cc1cc(Nc2nc(Nc3ccc(C4CCN(CC(N)=O)CC4)c4ccccc34)ncc2Cl)n[nH]1` [Compound 86, 2-(4-(4-(5-chloro-4-(5-methyl-1H-pyrazol-3-ylamino)pyrimidin-2-ylamino)naphthalene-1-yl)piperidin-1-yl)acetamide], the negative logarithm of the IC50 (pIC50) against IGF1R Ba/F3 [2] is 6.97.
The compound `CNC(=O)CN1CCC(c2ccc(Nc3ncc(Cl)c(Nc4cc(C)[nH]n4)n3)c3ccccc23)CC1` [Compound 87, 2-(4-(4-(5-chloro-4-(5-methyl-1H-pyrazol-3-ylamino)pyrimidin-2-ylamino)naphthalen-1-yl)piperidin-1-yl)-N-methylacetamide] gave a negative-log IC50 (pIC50) at IGF1R Ba/F3 [2] of 7.09.
On the same count and under the same terms, as for `Cc1cc(Nc2nc(Nc3ccc(C4CCN(CC(O)C(F)(F)F)CC4)c4ccccc34)ncc2Cl)n[nH]1` (centres unmarked) [Compound 88, 3-(4-(4-(5-chloro-4-(5-methyl-1H-pyrazol-3-ylamino)pyrimidin-2-ylamino)naphthalen-1-yl)piperidin-1-yl)-1,1,1-trifluoropropan-2-ol], the figure is 6.46; as for `CCN1CCc2ccc(Nc3ncc(Cl)c(Nc4cc(C)[nH]n4)n3)cc2CC1` [Compound 89], 7.06.
